Experiments:
Type in all cases: in vivo
Setaria faberi (SETFA) [1] = experiment: Post-emergence glasshouse herbicide test; conditions: post-emergence (sprayed after 8 days cultivation), 1000 g/h, evaluated after 13 days, five point scale
Procedure: (§1) Seeds of a variety of test species are sown in standard soil in pots (Alopecurus myosuroides (ALOMY), Setaria faberi (SETFA), Echinochloa crus-galli (ECHCG), Solanum nigrum (SOLNI), Amaranthus retoflexus (AMARE), Ipomoea hederacea (IPOHE)). After cultivation for one day (pre-emergence) or after 8 days cultivation (post-emergence) under controlled conditions in a glasshouse (at 24/16° C., day/night; 14 hours light; 65% humidity), the plants are sprayed with an aqueous spray solution derived from the formulation of the technical active ingredient in acetone/water (50:50) solution containing 0.5% Tween 20 (polyoxyethelyene sorbitan monolaurate, CAS RN 9005-64-5). Compounds are applied at 1000 g/h. The test plants are then grown in a glasshouse under controlled conditions in a glasshouse (at 24/16° C., day/night; 14 hours light; 65% humidity) and watered twice daily. After 13 days for pre and post-emergence, the test is evaluated for the percentage damage caused to the plant. The biological activities are shown in the following table on a five point scale (5=80-100%; 4=60-79%; 3=40-59%; 2=20-39%; 1=0-19%).

[2] = system: Ipomoea hederacea (IPOHE); experiment: Post-emergence glasshouse herbicide test; conditions: post-emergence (sprayed after 8 days cultivation), 1000 g/h, evaluated after 13 days, five point scale
Procedure: as §1

[3] = system: Echinochloa crus-galli (ECHCG); experiment: Post-emergence glasshouse herbicide test; conditions: post-emergence (sprayed after 8 days cultivation), 1000 g/h, evaluated after 13 days, five point scale
Procedure: as §1

Solanum nigrum (SOLNI) [4] = experiment: Post-emergence glasshouse herbicide test; conditions: post-emergence (sprayed after 8 days cultivation), 1000 g/h, evaluated after 13 days, five point scale
Procedure: as §1

[5] = system: Alopecurus myosuroides (ALOMY); experiment: Post-emergence glasshouse herbicide test; conditions: post-emergence (sprayed after 8 days cultivation), 1000 g/h, evaluated after 13 days, five point scale
Procedure: as §1

[6] = system: Amaranthus retoflexus (AMARE); experiment: Post-emergence glasshouse herbicide test; conditions: post-emergence (sprayed after 8 days cultivation), 1000 g/h, evaluated after 13 days, five point scale
Procedure: as §1

Setaria faberi (SETFA) [7] = experiment: Pre-emergence glasshouse herbicide test; conditions: pre-emergence (sprayed after one day cultivation), 1000 g/h, evaluated after 13 days, five point scale
Procedure: as §1

[8] = system: Ipomoea hederacea (IPOHE); experiment: Pre-emergence glasshouse herbicide test; conditions: pre-emergence (sprayed after one day cultivation), 1000 g/h, evaluated after 13 days, five point scale
Procedure: as §1

[9] = system: Echinochloa crus-galli (ECHCG); experiment: Pre-emergence glasshouse herbicide test; conditions: pre-emergence (sprayed after one day cultivation), 1000 g/h, evaluated after 13 days, five point scale
Procedure: as §1

Solanum nigrum (SOLNI) [10] = experiment: Pre-emergence glasshouse herbicide test; conditions: pre-emergence (sprayed after one day cultivation), 1000 g/h, evaluated after 13 days, five point scale
Procedure: as §1

[11] = system: Alopecurus myosuroides (ALOMY); experiment: Pre-emergence glasshouse herbicide test; conditions: pre-emergence (sprayed after one day cultivation), 1000 g/h, evaluated after 13 days, five point scale
Procedure: as §1

[12] = system: Amaranthus retoflexus (AMARE); experiment: Pre-emergence glasshouse herbicide test; conditions: pre-emergence (sprayed after one day cultivation), 1000 g/h, evaluated after 13 days, five point scale
Procedure: as §1

Row | SMILES | percentage damage caused to the plant, POST Application SETFA (Setaria faberi (SETFA) [1]) | percentage damage caused to the plant, POST Application IPOHE [2] | percentage damage caused to the plant, POST Application ECHCG [3] | percentage damage caused to the plant, POST Application SOLNI (Solanum nigrum (SOLNI) [4]) | percentage damage caused to the plant, POST Application ALOMY [5] | percentage damage caused to the plant, POST Application AMARE [6] | percentage damage caused to the plant, PRE Application SETFA (Setaria faberi (SETFA) [7]) | percentage damage caused to the plant, PRE Application IPOHE [8] | percentage damage caused to the plant, PRE Application ECHCG [9] | percentage damage caused to the plant, PRE Application SOLNI (Solanum nigrum (SOLNI) [10]) | percentage damage caused to the plant, PRE Application ALOMY [11] | percentage damage caused to the plant, PRE Application AMARE [12]
1 | Cc1c(-n2ncc(C#N)c(O)c2=O)ccc(S(C)(=O)=O)c1C1=NOCC1 [Compound 1.009] | 5 (5=80-100%) | 5 (5=80-100%) | 5 (5=80-100%) | 5 (5=80-100%) | 1 (1=0-19%) | 5 (5=80-100%) | 4 (4=60-79%) | 4 (4=60-79%) | 5 (5=80-100%) | 4 (4=60-79%) | 1 (1=0-19%) | 5 (5=80-100%)
2 | Cc1c(-n2ncc(C(C)C)c(O)c2=O)ccc(S(C)(=O)=O)c1C1=NOCC1 [Compound 1.010] | 5 (5=80-100%) | 5 (5=80-100%) | 5 (5=80-100%) | 5 (5=80-100%) | 5 (5=80-100%) | 5 (5=80-100%) | 2 (2=20-39%) | 1 (1=0-19%) | 3 (3=40-59%) | 1 (1=0-19%) | 3 (3=40-59%) | 5 (5=80-100%)
3 | Cc1c(-n2ncc(S(C)(=O)=O)c(O)c2=O)ccc(S(C)(=O)=O)c1C1=NOCC1 [Compound 1.011, 2-[3-(4,5-dihydroisoxazol-3-yl)-2-methyl-4-methylsulfonyl-phenyl]-4-hydroxy-5-methylsulfonyl-pyridazin-3-one] | 5 (5=80-100%) | 5 (5=80-100%) | 5 (5=80-100%) | 5 (5=80-100%) | 5 (5=80-100%) | 5 (5=80-100%) | 5 (5=80-100%) | 5 (5=80-100%) | 5 (5=80-100%) | 5 (5=80-100%) | 5 (5=80-100%) | 5 (5=80-100%)
4 | Cc1c(-n2ncc(Br)c(O)c2=O)ccc(S(C)(=O)=O)c1C1=NOCC1 [Compound 1.013] | 5 (5=80-100%) | 5 (5=80-100%) | 5 (5=80-100%) | 5 (5=80-100%) | 5 (5=80-100%) | 5 (5=80-100%) | 5 (5=80-100%) | 4 (4=60-79%) | 5 (5=80-100%) | 5 (5=80-100%) | 4 (4=60-79%) | 5 (5=80-100%)
5 | COc1cnn(-c2ccc(C(F)(F)F)cc2C(F)(F)F)c(=O)c1O [Compound 1.014] | 4 (4=60-79%) | 3 (3=40-59%) | 1 (1=0-19%) | 5 (5=80-100%) | 1 (1=0-19%) | 5 (5=80-100%) | 1 (1=0-19%) | 1 (1=0-19%) | 1 (1=0-19%) | 1 (1=0-19%) | 1 (1=0-19%) | 1 (1=0-19%)
6 | O=c1c(O)c(Cl)cnn1-c1ccc(C(F)(F)F)cc1C(F)(F)F [Compound 1.015] | 5 (5=80-100%) | 5 (5=80-100%) | 5 (5=80-100%) | 5 (5=80-100%) | 5 (5=80-100%) | 5 (5=80-100%) | 1 (1=0-19%) | 4 (4=60-79%) | 2 (2=20-39%) | 5 (5=80-100%) | 1 (1=0-19%) | 5 (5=80-100%)
7 | Cc1cnn(-c2ccc(S(C)(=O)=O)c(C3=NOCC3)c2C)c(=O)c1O [Compound 1.016, 2-[3-(4,5-dihydroisoxazol-3-yl)-2-methyl-4-methylsulfonyl-phenyl]-4-hydroxy-5-methyl-pyridazin-3-one] | 5 (5=80-100%) | 5 (5=80-100%) | 5 (5=80-100%) | 5 (5=80-100%) | 5 (5=80-100%) | 5 (5=80-100%) | 5 (5=80-100%) | 4 (4=60-79%) | 5 (5=80-100%) | 5 (5=80-100%) | 5 (5=80-100%) | 5 (5=80-100%)
8 | CS(=O)(=O)c1ccc(-n2ncc(Cl)c(O)c2=O)c(Cl)c1C1=NOCC1 [Compound 1.017] | 5 (5=80-100%) | 5 (5=80-100%) | 5 (5=80-100%) | 5 (5=80-100%) | 5 (5=80-100%) | 5 (5=80-100%) | 5 (5=80-100%) | 5 (5=80-100%) | 5 (5=80-100%) | 5 (5=80-100%) | 5 (5=80-100%) | 5 (5=80-100%)

Reference: patent publication US20140323300A1, “HERBICIDAL COMPOUNDS” (SYNGENTA LIMITED, priority 2011, published 2014)
